This note sets out measurements from patent publication US20230416232A1, “PYRIMIDINE COMPOUNDS, COMPOSITIONS, AND MEDICINAL APPLICATIONS THEREOF” (Blueprint Medicines Corporation, priority 2020, published 2023).

Each structure is given as a SMILES string.

Format in all cases: cell-based
The target in test [1] is EGFR(D770_N771insSVD) expressing Ba/F3 stable cell line (Homo sapiens, UniProt P00533, DUP768-770, cells depend on it). Nature of the test: Cellular proliferation (Alamar Blue) assay, EGFR(D770_N771insSVD) Ba/F3. As to conditions: 72 hr, read-out: D770 IC50. The essentials: (§1)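 Viability read-out: Alamar Blue, 3 h at 37 °C, after 72 h compound exposure (final 10-0.0005 μM, 3-fold serial). Seeding: 15,000 Ba/F3/well in RPMI/10% FBS; 5000 A431/well in DMEM/10% FBS; 16-18 h pre-incubation.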

For test [2], the target named is EGFR (A767_dupASV) expressing Ba/F3 stable cell line (Homo sapiens, UniProt P00533, DUP767-769, cells depend on it). The experiment in a line: Cellular proliferation (Alamar Blue) assay, EGFR (A767_dupASV) Ba/F3. As to conditions: 72 hr, read-out: A767 IC50. In short, it runs like this: as §1
For another test, the system named is A431 cells. Nature of the test: Cellular proliferation (Alamar Blue) assay, A431 cells. As to conditions: Homo sapiens, A-431, 72 h, A431 cells; 72 hr; Alamar Blue; read-out: A431 IC50. The essentials:
as §1

The target in test [3] is EGFR (H773insNPH) expressing Ba/F3 stable cell line (Homo sapiens, UniProt P00533, DUP771-773, cells depend on it). Nature of the test: Cellular proliferation (Alamar Blue) assay, EGFR (H773insNPH) Ba/F3. As to conditions: 72 hr, read-out: NPH IC50. The essentials:
as §1
In general terms: Alamar Blue is a resazurin reagent that responds to reducing activity.

Test [4] addresses HER2 (A775_G776insYVMA) expressing Ba/F3 stable cell line (Homo sapiens, UniProt P04626, DUP772-775, cells depend on it). The experiment in a line: Cellular proliferation (Alamar Blue) assay, HER2 (A775_G776insYVMA) Ba/F3. As to conditions: HER2 (A775_G776insYVMA) Ba/F3 cells; 72 hr; Alamar Blue; read-out: YVMA IC50. The essentials: as §1

Chain of EGFR (H773insNPH) expressing Ba/F3 stable cell line (P00533 with tags, fused parts or gaps DUP771-773): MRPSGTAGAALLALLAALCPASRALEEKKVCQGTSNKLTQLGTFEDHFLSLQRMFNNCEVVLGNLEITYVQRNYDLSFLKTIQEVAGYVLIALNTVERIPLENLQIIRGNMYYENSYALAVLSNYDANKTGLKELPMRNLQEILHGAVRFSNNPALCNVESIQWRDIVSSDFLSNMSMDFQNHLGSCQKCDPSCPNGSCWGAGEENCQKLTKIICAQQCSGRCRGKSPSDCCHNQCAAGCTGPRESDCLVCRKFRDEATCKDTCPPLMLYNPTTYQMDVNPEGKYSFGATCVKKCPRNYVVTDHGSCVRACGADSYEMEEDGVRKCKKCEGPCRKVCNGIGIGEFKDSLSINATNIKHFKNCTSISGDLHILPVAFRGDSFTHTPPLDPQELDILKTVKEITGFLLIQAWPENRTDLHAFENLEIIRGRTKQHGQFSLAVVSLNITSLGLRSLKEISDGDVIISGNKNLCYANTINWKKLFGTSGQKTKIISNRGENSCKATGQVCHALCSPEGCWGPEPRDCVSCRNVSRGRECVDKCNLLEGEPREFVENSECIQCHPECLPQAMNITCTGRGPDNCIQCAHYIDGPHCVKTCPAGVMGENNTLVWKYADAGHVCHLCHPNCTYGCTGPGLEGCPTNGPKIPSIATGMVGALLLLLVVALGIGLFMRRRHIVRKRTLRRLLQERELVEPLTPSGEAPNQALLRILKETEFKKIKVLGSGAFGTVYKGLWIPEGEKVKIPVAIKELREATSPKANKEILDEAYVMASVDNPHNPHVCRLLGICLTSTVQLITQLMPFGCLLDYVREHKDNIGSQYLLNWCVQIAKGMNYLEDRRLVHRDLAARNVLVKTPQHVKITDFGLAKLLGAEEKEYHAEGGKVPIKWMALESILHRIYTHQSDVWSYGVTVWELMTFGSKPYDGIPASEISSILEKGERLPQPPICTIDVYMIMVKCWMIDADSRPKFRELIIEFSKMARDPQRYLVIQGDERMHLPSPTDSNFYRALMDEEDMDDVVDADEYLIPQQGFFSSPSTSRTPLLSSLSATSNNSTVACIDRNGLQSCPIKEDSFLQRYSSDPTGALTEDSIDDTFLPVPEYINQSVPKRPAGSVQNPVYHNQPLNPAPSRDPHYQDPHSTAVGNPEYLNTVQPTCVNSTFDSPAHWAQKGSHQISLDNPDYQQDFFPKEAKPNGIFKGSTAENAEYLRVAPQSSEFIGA
Chain of HER2 (A775_G776insYVMA) expressing Ba/F3 stable cell line (P04626 with tags, fused parts or gaps DUP772-775): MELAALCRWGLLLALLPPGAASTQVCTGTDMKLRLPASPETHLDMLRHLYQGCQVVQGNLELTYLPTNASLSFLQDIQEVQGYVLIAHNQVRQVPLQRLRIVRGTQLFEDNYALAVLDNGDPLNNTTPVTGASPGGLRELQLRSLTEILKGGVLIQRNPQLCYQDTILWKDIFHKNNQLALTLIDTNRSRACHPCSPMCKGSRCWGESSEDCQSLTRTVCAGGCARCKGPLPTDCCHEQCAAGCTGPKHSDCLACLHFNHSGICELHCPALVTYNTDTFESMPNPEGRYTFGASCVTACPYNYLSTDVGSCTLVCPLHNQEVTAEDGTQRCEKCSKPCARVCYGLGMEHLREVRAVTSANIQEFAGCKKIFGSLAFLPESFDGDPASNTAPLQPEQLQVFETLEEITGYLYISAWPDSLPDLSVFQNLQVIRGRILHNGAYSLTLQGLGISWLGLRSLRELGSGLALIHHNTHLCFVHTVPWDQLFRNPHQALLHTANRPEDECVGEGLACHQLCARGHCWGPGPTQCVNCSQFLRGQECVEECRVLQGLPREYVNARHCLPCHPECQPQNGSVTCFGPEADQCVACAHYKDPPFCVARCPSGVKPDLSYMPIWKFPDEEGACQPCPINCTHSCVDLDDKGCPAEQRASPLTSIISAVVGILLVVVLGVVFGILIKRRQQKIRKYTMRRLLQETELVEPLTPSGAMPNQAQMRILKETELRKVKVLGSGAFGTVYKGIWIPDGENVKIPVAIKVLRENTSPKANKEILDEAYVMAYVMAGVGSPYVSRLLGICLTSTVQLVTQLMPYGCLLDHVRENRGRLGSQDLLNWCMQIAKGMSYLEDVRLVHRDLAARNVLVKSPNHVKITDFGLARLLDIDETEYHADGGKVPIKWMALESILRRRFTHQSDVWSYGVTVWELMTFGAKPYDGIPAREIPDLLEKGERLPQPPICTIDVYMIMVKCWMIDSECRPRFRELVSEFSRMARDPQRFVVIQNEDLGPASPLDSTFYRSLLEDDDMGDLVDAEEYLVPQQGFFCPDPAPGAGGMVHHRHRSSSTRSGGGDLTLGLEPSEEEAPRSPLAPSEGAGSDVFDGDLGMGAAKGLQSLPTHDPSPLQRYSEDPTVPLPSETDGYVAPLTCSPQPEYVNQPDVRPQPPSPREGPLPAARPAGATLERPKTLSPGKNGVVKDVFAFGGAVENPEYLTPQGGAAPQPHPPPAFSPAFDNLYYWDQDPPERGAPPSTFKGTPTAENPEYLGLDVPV
Chain of EGFR(D770_N771insSVD) expressing Ba/F3 stable cell line (P00533 with tags, fused parts or gaps DUP768-770): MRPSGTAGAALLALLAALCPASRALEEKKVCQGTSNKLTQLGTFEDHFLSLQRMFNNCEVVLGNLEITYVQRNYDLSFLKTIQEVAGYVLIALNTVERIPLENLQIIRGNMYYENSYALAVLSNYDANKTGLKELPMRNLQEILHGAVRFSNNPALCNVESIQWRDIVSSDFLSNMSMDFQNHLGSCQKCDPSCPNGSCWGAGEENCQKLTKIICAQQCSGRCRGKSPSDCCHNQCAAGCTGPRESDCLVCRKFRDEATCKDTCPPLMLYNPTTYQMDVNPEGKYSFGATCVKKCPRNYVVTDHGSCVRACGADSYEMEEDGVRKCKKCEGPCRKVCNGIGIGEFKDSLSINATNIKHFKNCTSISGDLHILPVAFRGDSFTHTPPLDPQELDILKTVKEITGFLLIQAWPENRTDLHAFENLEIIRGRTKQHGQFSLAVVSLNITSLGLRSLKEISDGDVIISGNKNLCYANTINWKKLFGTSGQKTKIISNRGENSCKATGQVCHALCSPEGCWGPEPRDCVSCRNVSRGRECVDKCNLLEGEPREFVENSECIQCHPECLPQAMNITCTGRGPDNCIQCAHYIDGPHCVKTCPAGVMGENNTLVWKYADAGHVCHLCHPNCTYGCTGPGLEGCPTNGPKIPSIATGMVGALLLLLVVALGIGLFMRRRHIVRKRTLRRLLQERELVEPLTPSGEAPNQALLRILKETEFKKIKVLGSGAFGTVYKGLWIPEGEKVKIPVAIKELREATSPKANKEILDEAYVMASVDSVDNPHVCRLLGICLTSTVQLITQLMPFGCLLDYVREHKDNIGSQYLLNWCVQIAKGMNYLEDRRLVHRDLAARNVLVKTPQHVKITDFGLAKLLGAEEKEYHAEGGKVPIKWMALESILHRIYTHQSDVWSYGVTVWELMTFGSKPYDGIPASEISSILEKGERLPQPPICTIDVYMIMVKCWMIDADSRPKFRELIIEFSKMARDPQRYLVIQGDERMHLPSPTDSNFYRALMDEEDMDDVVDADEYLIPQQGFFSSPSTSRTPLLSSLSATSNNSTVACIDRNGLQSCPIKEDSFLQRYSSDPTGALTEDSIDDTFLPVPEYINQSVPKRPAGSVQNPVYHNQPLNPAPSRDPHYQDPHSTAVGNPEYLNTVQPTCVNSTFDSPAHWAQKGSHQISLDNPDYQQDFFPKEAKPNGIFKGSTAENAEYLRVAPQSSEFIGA
Chain of EGFR (A767_dupASV) expressing Ba/F3 stable cell line (P00533 with tags, fused parts or gaps DUP767-769): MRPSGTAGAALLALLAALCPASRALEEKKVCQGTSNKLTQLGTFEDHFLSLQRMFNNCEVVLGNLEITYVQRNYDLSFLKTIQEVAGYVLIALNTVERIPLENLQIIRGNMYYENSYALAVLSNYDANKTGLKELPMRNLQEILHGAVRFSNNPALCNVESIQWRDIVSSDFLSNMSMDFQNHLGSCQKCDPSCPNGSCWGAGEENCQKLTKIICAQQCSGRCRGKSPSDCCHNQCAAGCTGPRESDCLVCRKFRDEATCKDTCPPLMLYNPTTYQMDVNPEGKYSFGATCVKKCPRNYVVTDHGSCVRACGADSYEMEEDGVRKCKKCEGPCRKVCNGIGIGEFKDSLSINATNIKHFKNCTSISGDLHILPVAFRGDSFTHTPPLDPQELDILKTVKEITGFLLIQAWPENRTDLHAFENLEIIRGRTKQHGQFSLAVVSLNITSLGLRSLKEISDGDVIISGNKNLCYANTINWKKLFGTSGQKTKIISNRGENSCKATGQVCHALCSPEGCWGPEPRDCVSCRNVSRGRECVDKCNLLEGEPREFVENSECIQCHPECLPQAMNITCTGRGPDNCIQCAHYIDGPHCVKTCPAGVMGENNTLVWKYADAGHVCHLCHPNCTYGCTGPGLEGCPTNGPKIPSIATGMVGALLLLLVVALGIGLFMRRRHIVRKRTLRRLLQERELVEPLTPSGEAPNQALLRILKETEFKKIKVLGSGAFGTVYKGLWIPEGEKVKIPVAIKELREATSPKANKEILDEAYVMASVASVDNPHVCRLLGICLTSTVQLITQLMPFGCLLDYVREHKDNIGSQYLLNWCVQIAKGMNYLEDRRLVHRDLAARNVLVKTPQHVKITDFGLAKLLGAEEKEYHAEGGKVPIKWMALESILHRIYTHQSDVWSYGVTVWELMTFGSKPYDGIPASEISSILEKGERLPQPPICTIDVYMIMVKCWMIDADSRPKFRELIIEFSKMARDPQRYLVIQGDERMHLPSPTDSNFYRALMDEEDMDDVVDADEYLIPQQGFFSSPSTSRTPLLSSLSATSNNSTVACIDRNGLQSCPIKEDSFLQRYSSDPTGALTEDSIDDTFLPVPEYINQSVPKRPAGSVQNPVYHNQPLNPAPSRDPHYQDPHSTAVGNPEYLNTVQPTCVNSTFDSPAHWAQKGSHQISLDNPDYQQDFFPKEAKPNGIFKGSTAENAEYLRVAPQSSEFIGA

By IC50 is commonly meant the concentration needed to halve the response being measured. On to `C=CC(=O)Nc1ccc(F)c(Nc2nc(Nc3cnn(C)c3)ncc2-c2ccc(N3CCCC3)c(F)c2)c1` [Compound 77, N-(4-fluoro-3-((5-(3-fluoro-4-(pyrrolidin-1-yl)phenyl)-2-((1-methyl-1H-pyrazol-4-yl)amino)pyrimidin-4-yl)amino)phenyl)acrylamide], for which the GI50 in test [1] stood at 340 nM; in test [2] it was 113 nM; in test [3], 353 nM; in test [4], 584 nM. In the test with A431 cells, the IC50 was 297 nM.
As to `C=CC(=O)Nc1ccc(F)c(Nc2nc(Nc3cnn(C)c3)ncc2-c2ccc(N3CCCCC3)c(F)c2)c1` [Compound 78, N-(4-fluoro-3-((5-(3-fluoro-4-(piperidin-1-yl)phenyl)-2-((1-methyl-1H-pyrazol-4-yl)amino)pyrimidin-4-yl)amino)phenyl)acrylamide], the GI50 in test [1] was 111 nM; in test [2] it was 59 nM; in test [3], 144 nM; in test [4], 286 nM. Further, the IC50 with A431 cells is 102 nM.
As to `C=CC(=O)Nc1ccc(F)c(Nc2nc(Nc3cnn(C)c3)ncc2-c2ccc(Br)c(Cl)c2)c1` [Compound 88, N-(3-((5-(4-bromo-3-chlorophenyl)-2-((1-methyl-1H-pyrazol-4-yl)amino)pyrimidin-4-yl)amino)-4-fluorophenyl)acrylamide], the GI50 in test [1] turned out to be 66 nM; in test [2], 87 nM; in test [3], 57 nM; in test [4] it was 118 nM. Moreover, the half-inhibitory concentration (IC50) in the test on A431 cells is 280 nM.
`C=CC(=O)Nc1ccc(F)c(Nc2nc(Nc3cnn(CCN(C)C)c3)ncc2-c2ccc(Br)c(Cl)c2)c1` [Compound 89, N-(3-((5-(4-bromo-3-chlorophenyl)-2-((1-(2-(dimethylamino)ethyl)-1H-pyrazol-4-yl)amino)pyrimidin-4-yl)amino)-4-fluorophenyl)acrylamide]: the GI50 came out at 102 nM in test [1], 108 nM in test [2], 56 nM in test [3] and 123 nM in test [4]. Moreover, the IC50 with A431 cells worked out at 343 nM.
For `C=CC(=O)Nc1ccc(F)c(Nc2nc(Nc3cnn(C)c3)ncc2-c2ccc(Cl)c(Br)c2)c1` [Compound 90, N-(3-((5-(3-bromo-4-chlorophenyl)-2-((1-methyl-1H-pyrazol-4-yl)amino)pyrimidin-4-yl)amino)-4-fluorophenyl)acrylamide] the same measures were 100 nM, 122 nM, 156 nM, 164 nM and 185 nM.
As to `C=CC(=O)Nc1ccc(F)c(Nc2nc(Nc3cn(C)nc3Cl)ncc2-c2ccc(Br)c(F)c2)c1` [Compound 92, N-(3-((5-(4-bromo-3-fluorophenyl)-2-((3-chloro-1-methyl-1H-pyrazol-4-yl)amino)pyrimidin-4-yl)amino)-4-fluorophenyl)acrylamide], the GI50 in test [1] stood at 74 nM; in test [2], 102 nM; in test [3] it was 54 nM; in test [4], 113 nM. Also, the concentration for half-maximal inhibition (IC50) in the test with A431 cells turned out to be 45 nM.
For `C=CC(=O)Nc1ccc(F)c(Nc2nc(Nc3cnn(CCO)c3)ncc2-c2ccc(Br)c(F)c2)c1` [Compound 96, N-(3-((5-(4-bromo-3-fluorophenyl)-2-((1-(2-hydroxyethyl)-1H-pyrazol-4-yl)amino)pyrimidin-4-yl)amino)-4-fluorophenyl)acrylamide] the same measures were 25 nM, 28 nM, 96 nM, 56 nM and 37 nM.
Regarding `C=CC(=O)Nc1ccc(F)c(Oc2nc(Nc3cnn(C)c3)ncc2-c2ccc(Cl)c(F)c2)c1` [Compound 98, N-(3-{[5-(4-chloro-3-fluorophenyl)-2-[(1-methyl-1H-pyrazol-4-yl)amino]pyrimidin-4-yl]oxy}-4-fluorophenyl) prop-2-enamide], the GI50 amounted to 36 nM in test [1], 104 nM in test [2], 153 nM in test [3] and 252 nM in test [4]. For the same compound, the IC50 in the test with A431 cells worked out at 990 nM.
